Experimental data published in patent US20220387366A1, “Compositions for Regulating Homeostasis of Cortisol and Improving Sleep Quality and Methods of Use and Production Thereof” (Unigen, Inc., priority 2021, published 2022).
Marks after values point to notes of the source that are not given here. One block for each compound: values may come before it.

Tests used:
MT2 receptor = target: T1, MT2 receptor (Homo sapiens, UniProt P49286); test: Melatonin receptor MT2 binding assay, displacement of [125I]2-Iodomelatonin; conditions: for inhibition at 0.015625 µg/mL: 0.015625 μg/mL; for inhibition at 0.03125 µg/mL: 0.03125 μg/mL; for inhibition at 0.0625 µg/mL: 0.0625 μg/mL; for inhibition at 0.125 µg/mL: 0.125 μg/mL; for inhibition at 0.25 µg/mL: 0.25 μg/mL; for inhibition at 1 µg/mL: 1 μg/mL; for inhibition at 2 µg/mL: 2 μg/mL; for inhibition at 4 µg/mL: 4 μg/mL; for inhibition at 8 µg/mL: 8 μg/mL; for inhibition against MT2 receptor: concentration range from 8 ug/mL to 0.015625 μg/mL
T1 construct: expressed in transfected cells; host or cells: CHO-K1 cells (membranes)
T1 sequence (P49286 1-362): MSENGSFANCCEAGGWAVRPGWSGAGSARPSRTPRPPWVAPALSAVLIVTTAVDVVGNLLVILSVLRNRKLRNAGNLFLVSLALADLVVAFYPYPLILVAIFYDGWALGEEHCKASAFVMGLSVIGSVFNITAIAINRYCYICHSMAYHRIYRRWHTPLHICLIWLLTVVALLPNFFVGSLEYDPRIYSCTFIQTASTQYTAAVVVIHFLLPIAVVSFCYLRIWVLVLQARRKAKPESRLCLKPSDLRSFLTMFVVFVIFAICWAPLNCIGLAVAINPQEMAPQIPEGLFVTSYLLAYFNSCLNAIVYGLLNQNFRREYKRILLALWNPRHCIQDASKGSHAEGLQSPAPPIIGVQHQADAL

MT1 receptor = target: T2, MT1 receptor (Homo sapiens, UniProt P48039); test: Melatonin receptor MT1 binding assay, displacement of [125I]2-Iodomelatonin; conditions: for inhibition at 0.015625 µg/mL: 0.015625 μg/mL; for inhibition at 0.03125 µg/mL: 0.03125 μg/mL; for inhibition at 0.0625 µg/mL: 0.0625 μg/mL; for inhibition at 0.125 µg/mL: 0.125 μg/mL; for inhibition at 0.25 µg/mL: 0.25 μg/mL; for inhibition at 0.5 µg/mL: 0.5 μg/mL; for inhibition at 1 µg/mL: 1 μg/mL; for inhibition at 2 µg/mL: 2 μg/mL; for inhibition at 4 µg/mL: 4 μg/mL; for inhibition at 8 µg/mL: 8 μg/mL; for inhibition against MT1 receptor: concentration range from 8 ug/mL to 0.015625 μg/mL
T2 construct: expressed in transfected cells; host or cells: CHO-K1 cells (membranes)
T2 sequence (P48039 whole entry): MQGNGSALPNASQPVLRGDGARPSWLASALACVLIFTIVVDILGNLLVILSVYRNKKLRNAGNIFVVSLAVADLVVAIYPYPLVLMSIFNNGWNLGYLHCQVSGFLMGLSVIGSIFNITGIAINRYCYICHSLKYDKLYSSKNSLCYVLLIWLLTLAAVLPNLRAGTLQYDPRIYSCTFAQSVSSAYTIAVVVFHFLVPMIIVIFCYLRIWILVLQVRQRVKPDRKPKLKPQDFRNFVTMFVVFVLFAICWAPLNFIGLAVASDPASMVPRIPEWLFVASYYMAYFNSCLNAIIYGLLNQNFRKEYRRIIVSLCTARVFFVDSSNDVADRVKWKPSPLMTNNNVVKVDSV
Description: Human recombinant melatonin receptors (MT1 and MT2) were expressed in CHO-K1 cells and resuspended in buffer. The membranes containing recombinant receptors were incubated with test compounds in combination with 0.05 nM [125I]2-lodomelatonin for 180 minutes at 25° C. Membranes were immobilized on filters before being washed and the [125I]2-Iodomelatonin was counted. Test compounds that bound to MT1 or MT2 in the same binding site as melatonin displaced [125I]2-lodomelatonin, reducing the count. […] 0.00021 μM Melatonin was used as a positive control to displace [125I]2-Iodomelatonin (Paul et al., 1999; Beresford et al., 1998).
All samples were dissolved in 1% DMSO.

Male BALB/C mice [1] = test: Sleep time induced by pentobarbital sodium (36 mg/kg i.p.) after 32 days of dosing; assay type: in vivo
Description: Male BALB/C mice (18 g˜22 g) were randomly assigned to groups of vehicle control (sterile water); positive control group, melatonin 1 mg/kg BW (0.1 g/L); low dose group, a composition derived from enriched for one or more phenylpropanoid acids and benzoxazinoids 250 mg/kg BW (25 g/L in sterile water); middle dose group, a composition derived from enriched for one or more phenylpropanoid acids and benzoxazinoids 500 mg/kg BW (50 g/L in sterile water); and high dose group, a composition derived from enriched for one or more phenylpropanoid acids and benzoxazinoids 1000 mg/kg BW (100 g/L in sterile water). Each animal received the respective dose daily for 32 consecutive days. 15 min after the last dose, each group of mice was intraperitoneally injected with 36 mg/kg pentobarbital sodium (in 0.1 mL/10 g). The sleep time of each mouse was recorded and the difference of sleep time between a composition derived from enriched for one or more phenylpropanoid acids and benzoxazinoids-treated groups and vehicle control was determined.

Male BALB/C mice [2] = test: Sleep latency / sleeping incidence with subthreshold pentobarbital sodium (26 mg/kg i.p.) after 32 days of dosing; assay type: in vivo; conditions: 1 mg/kg
Description: Male BALB/C mice (18 g˜22 g) were randomly assigned to groups of vehicle control (sterile water); positive control group, melatonin 1 mg/kg BW (0.1 g/L); low dose group, a composition derived from enriched for one or more phenylpropanoid acids and benzoxazinoids 250 mg/kg BW (25 g/L in sterile water); middle dose group, a composition derived from enriched for one or more phenylpropanoid acids and benzoxazinoids 500 mg/kg BW (50 g/L in sterile water); and high dose group, a composition derived from enriched for one or more phenylpropanoid acids and benzoxazinoids 1000 mg/kg BW (100 g/L in sterile water). Each animal received the respective dose daily for 32 consecutive days. Mice from each group were intraperitoneally injected with 26 mg/kg pentobarbital sodium (0.1 mL/10 g BW), 15 min after the last dose to induce subthreshold hypnosis. The numbers of mice that lose the reflex to turnover to the right side over 1 min after injection of pentobarbital sodium were recorded for 30 min. The incidence of sleeping mice was analyzed to compare the difference between the tested substance groups and vehicle control. Latency of sleep is the number of animals with loss of the righting reflex in duration of time elapsed after pentobarbital administrations. […] As a result, the subthreshold dose of pentobarbital was given to each mouse 15 min after the last dose of test materials to assess the effect of materials on sleep latency. Thirty minutes post pentobarbital injection, the number of mice with no reflex to turn over to the right side over the duration of 1 min was recorded. Data were reported as incidence of sleeping. […] These incidences were statistically significant for both the high dose of UP165 and melatonin compared to the vehicle control animals. In comparison, the incidence in the vehicle-treated group was only 20%. Positive trends (60% of mice both in the 250 and 500 mg/kg group) were also observed for the low and mid doses of UP165.

Male BALB/C mice [3] = test: Acute effect on sleep following a single oral administration; assay type: in vivo; conditions: single oral 1 mg/kg
Description: Male BALB/C mice (18 g˜22 g) were randomly assigned to groups of vehicle control (sterile water); positive control group, melatonin 1 mg/kg BW (0.1 g/L); low dose group, a composition derived from enriched for one or more phenylpropanoid acids and benzoxazinoids 250 mg/kg BW (25 g/L in sterile water); middle dose group, a composition derived from enriched for one or more phenylpropanoid acids and benzoxazinoids 500 mg/kg BW (50 g/L in sterile water); and high dose group, a composition derived from enriched for one or more phenylpropanoid acids and benzoxazinoids 1000 mg/kgBW (100 g/L in sterile water). Mice were administered the respective treatment group and observed for 60 min monitor the direct impact of test compounds on sleep following a single oral administration. When naive mice are placed into a supine position, they instantaneously turn to the upright position. However, mice under the hypnotic dose of pentobarbital remain on the supine position for measurable amount of time. Sleeping was indexed as the disappearance of reflex to turnover to the right side, and mouse was considered asleep when the time to turn over to the side was over 30 s after mouse was treated with a composition derived from enriched for one or more phenylpropanoid acids and benzoxazinoids. In the current study, none of the treatment groups induce sleep following a single oral administration (Table 15).

Compound: O=C(O)CCc1ccc(O)cc1 [Phloretic acid]
inhibition at 5 µg/mL (MT2 receptor; isolated compounds, 5 μg/mL): 69%
inhibition at 25 µg/mL (MT2 receptor; isolated compounds, 25 μg/mL): 94%

Compound: COc1ccc2nc(O)oc2c1 [6-MBOA, 6-methoxy-2-benzoxazolol, reference compound]
inhibition at 0.0032 µM (MT1 receptor; 0.0032 μM): 2%
inhibition at 0.0064 µM (MT1 receptor; 0.0064 μM): 3%
inhibition at 0.013 µM (MT1 receptor; 0.013 μM): 8%
inhibition at 0.025 µM (MT1 receptor; 0.025 μM): 11%
inhibition at 0.051 µM (MT1 receptor; 0.051 μM): 5%
inhibition at 0.102 µM (MT1 receptor; 0.102 μM): 1%
inhibition at 0.204 µM (MT1 receptor; 0.204 μM): 7%
inhibition at 0.407 µM (MT1 receptor; 0.407 μM): 6%
inhibition at 0.815 µM (MT1 receptor; 0.815 μM): 7%
inhibition at 1.63 µM (MT1 receptor; 1.63 μM): 8%
inhibition of 2-lodomelatonin binding to MT1 (MT1 receptor; at the concentrations tested (3.2 nM to 1.63 μM)): did not inhibit
inhibition at 0.815 µM (MT2 receptor; 0.815 μM): -12%
inhibition at 1.63 µM (MT2 receptor; 1.63 μM): -4%
inhibition at 3.26 µM (MT2 receptor; 3.26 μM): 8%
inhibition at 6.52 µM (MT2 receptor; 6.52 μM): 11%
inhibition at 13.04 µM (MT2 receptor; 13.04 μM): 15%
inhibition of 2-lodomelatonin binding to MT2 (MT2 receptor; at the concentrations tested (0.815 to 13.04 μM)): did not inhibit

Compound: COc1cc(/C=C/C(=O)O)ccc1O [Ferulic acid]
inhibition at 0.5 µg/mL (MT2 receptor; isolated compounds, 0.5 μg/mL): 2.6%
inhibition at 2.5 µg/mL (MT2 receptor; isolated compounds, 2.5 μg/mL): 1.6%

Compound: 3-methoxy-hydrocoumaric acid
MT2 receptor binding (inhibition) (MT2 receptor; isolated compounds, 0.5 μg/mL): 8.9%
MT2 receptor binding (inhibition) (MT2 receptor; isolated compounds, 2.5 μg/mL): 22.9%

Compound: COc1ccc2[nH]cc(CCNC(C)=O)c2c1 [Melatonin]
increase in sleep time compared to vehicle control (Male BALB/C mice [1]; 1 mg/kg): 12.0 ± 1.3 min
Sleep Time (Male BALB/C mice [1]; 1 mg/kg daily for 32 days, Mean ± SD): 42.6 ± 10.7 min
Incidence of sleeping (Male BALB/C mice [2]): 80%*
Sleeping No. (Male BALB/C mice [2]; of 15 mice): 12
Incidence of sleeping (Male BALB/C mice [2]; listed as melatonin): 80%
Incidence of sleeping (Male BALB/C mice [3]): 0%
Sleeping No. (Male BALB/C mice [3]; of 15 mice): 0

Compound: COc1ccc2c(c1)OC(O[C@@H]1O[C@H](CO)[C@@H](O)[C@H](O)[C@H]1O)C(=O)N2OC (stereo partly drawn) [MW387, 2-(β-D-Glucopyranosyloxy)-4,7-dimethoxy-2H-1,4-benzoxazin-3(4H)-one]
inhibition at 0.015625 µg/mL (MT1 receptor): 2%
inhibition at 0.03125 µg/mL (MT1 receptor): -3%
inhibition at 0.0625 µg/mL (MT1 receptor): -6%
inhibition at 0.125 µg/mL (MT1 receptor): -2%
inhibition at 0.25 µg/mL (MT1 receptor): 6%
inhibition at 0.5 µg/mL (MT1 receptor): 6%
inhibition at 1 µg/mL (MT1 receptor): 1%
inhibition at 2 µg/mL (MT1 receptor): -1%
inhibition at 4 µg/mL (MT1 receptor): -5%
inhibition at 8 µg/mL (MT1 receptor): 3%
inhibition against MT1 receptor (MT1 receptor): Neither compound show any inhibition
inhibition at 0.015625 µg/mL (MT2 receptor): -4%
inhibition at 0.03125 µg/mL (MT2 receptor): -6%
inhibition at 0.0625 µg/mL (MT2 receptor): -2%
inhibition at 0.125 µg/mL (MT2 receptor): -6%
inhibition at 0.25 µg/mL (MT2 receptor): -3%
inhibition at 0.5 µg/mL (MT2 receptor; 0.5 μg/mL): 7%
inhibition at 1 µg/mL (MT2 receptor): -2%
inhibition at 2 µg/mL (MT2 receptor): 0%
inhibition at 4 µg/mL (MT2 receptor): 3%
inhibition at 8 µg/mL (MT2 receptor): 4%
inhibition against MT2 receptor (MT2 receptor): Neither compound show any inhibition

More lines, now with the values ahead:

inhibition at 0.5 µg/mL (MT2 receptor; isolated compounds, 0.5 μg/mL): 3.9%
inhibition at 2.5 µg/mL (MT2 receptor; isolated compounds, 2.5 μg/mL): 28%
Compound: COc1ccc2c(c1)OC(O)C(=O)N2 (stereo not drawn) [HMBOA, 2-Hydroxy-7-methoxy-2H-1,4-benzoxazin-3(4H)-one]

inhibition at 0.5 µg/mL (MT2 receptor; isolated compounds, 0.5 μg/mL): 0.5%
inhibition at 2.5 µg/mL (MT2 receptor; isolated compounds, 2.5 μg/mL): 6.7%
Compound: O=C(O)/C=C/c1ccc(O)cc1 [p-coumaric acid]

inhibition at 0.015625 µg/mL (MT1 receptor): 3%
inhibition at 0.03125 µg/mL (MT1 receptor): 1%
inhibition at 0.0625 µg/mL (MT1 receptor): -4%
inhibition at 0.125 µg/mL (MT1 receptor): -1%
inhibition at 0.25 µg/mL (MT1 receptor): 0%
inhibition at 0.5 µg/mL (MT1 receptor): -5%
inhibition at 1 µg/mL (MT1 receptor): -2%
inhibition at 2 µg/mL (MT1 receptor): -4%
inhibition at 4 µg/mL (MT1 receptor): -5%
inhibition at 8 µg/mL (MT1 receptor): 0%
inhibition against MT1 receptor (MT1 receptor): Neither compound show any inhibition
inhibition at 0.015625 µg/mL (MT2 receptor): 4%
inhibition at 0.03125 µg/mL (MT2 receptor): 2%
inhibition at 0.0625 µg/mL (MT2 receptor): 1%
inhibition at 0.125 µg/mL (MT2 receptor): -6%
inhibition at 0.25 µg/mL (MT2 receptor): 5%
inhibition at 0.5 µg/mL (MT2 receptor; 0.5 μg/mL): 4%
inhibition at 1 µg/mL (MT2 receptor): 3%
inhibition at 2 µg/mL (MT2 receptor): 10%
inhibition at 4 µg/mL (MT2 receptor): 5%
inhibition at 8 µg/mL (MT2 receptor): 3%
inhibition against MT2 receptor (MT2 receptor): Neither compound show any inhibition
Compound: COc1ccc2c(c1)OC(O[C@@H]1O[C@H](CO)[C@@H](O)[C@H](O)[C@H]1O)C(=O)N2 (stereo partly drawn) [MW357, 2-(β-D-Glucopyranosyloxy)-7-methoxy-2H-1,4-benzoxazin-3(4H)-one]
